Test system: Helicoverpa armigera
Experiment: Helicoverpa armigera diet incorporation method
Type: in vivo
Details: third instar larvae, 96 h after release, dead and moribund combined, compared to untreated control, read-out: Percent mortality
Experimental: Diet incorporation method was used, in which the required quantity of test compounds were weighed and dissolved in a surfactant solution, kept on vortex for 90 min for proper mixing, then was diluted with water to the desired test concentrations. The solutions were incorporated into semi-synthetic diet when the temperature reached approximately 50° C. in the bioassay containers. The diet and solution was stirred thoroughly for properly mixing and then left to cool for 30 min. The solidified diet was cut into equal pieces, and then each piece was transferred into one cell of the bio-assay trays. A single third starved instar larva was released into each of these cells of the bioassay trays and each tray was covered with a lid. The bio-assay trays were kept under laboratory conditions at a temperature of 25° C. and relative humidity of 70%. Observations on dead, moribund and alive larvae were recorded at 96 h after the release of the larvae. Percent mortality was calculated by combining dead and moribund larvae and comparing the result to the one of the untreated control.

Question: Which mortality at 300 ppm does the source give for CCSc1nn2c(-c3ccc(OC(F)(F)F)cc3)ccnc2c1-c1nc2cc(C(F)(F)F)ncc2n1C [Compound 28, 2-(2-(Ethylthio)-7-(4-(trifluoromethoxy)phenyl)pyrazolo[1,5-a]pyrimidin-3-yl)-3-methyl-6-(trifluoromethyl)-3H-imidazo[4,5-c]pyridine] here?
Answer: > 70%

Question: With CCS(=O)(=O)c1nn2c(-c3ccc(OC(F)(F)F)cc3)ccnc2c1-c1nc2cc(S(=O)(=O)C(F)(F)F)ccc2o1 [Compound 32, 2-(2-(Ethylsulfonyl)-7-(4-(trifluoromethoxy)phenyl)pyrazolo[1,5-a]pyrimidin-3-yl)-5-((trifluoromethyl)sulfonyl)benzo[d]oxazole] as the molecule, how does the mortality at 300 ppm read?
Answer: > 70%

Question: Which mortality at 300 ppm does the source give for CCS(=O)(=O)c1nn2c(-c3ccc(Cl)cc3)ccnc2c1-c1nc2cc(C(F)(F)F)cnc2n1C [Compound 39, 2-(7-(4-Chlorophenyl)-2-(ethylsulfonyl)pyrazolo[1,5-a]pyrimidin-3-yl)-3-methyl-6-(trifluoromethyl)-3H-imidazo[4,5-b]pyridine] here?
Answer: > 70%

Question: CCSc1nn2c(-c3cccc(Cl)c3)ccnc2c1-c1nc2cc(C(F)(F)F)cnc2n1C [Compound 97, 2-(7-(3-Chlorophenyl)-2-(ethylthio)pyrazolo[1,5-a]pyrimidin-3-yl)-3-methyl-6-(trifluoromethyl)-3H-imidazo[4,5-b]pyridine] was tested. Which mortality at 300 ppm did it give?
Answer: > 70%

Question: How did the mortality at 300 ppm turn out when CCSc1nn2c(-c3cc(F)cc(Cl)c3)ccnc2c1-c1nc2cc(C(F)(F)F)cnc2n1C [Compound 102, 2-(7-(3-Chloro-5-fluorophenyl)-2-(ethylthio)pyrazolo[1,5-a]pyrimidin-3-yl)-3-methyl-6-(trifluoromethyl)-3H-imidazo[4,5-b]pyridine] was run?
Answer: > 70%

Question: CCSc1nn2c(-c3ccc(Cl)cc3Cl)ccnc2c1-c1nc2cc(C(F)(F)F)cnc2n1C [Compound 120, 2-(7-(2,4-Dichlorophenyl)-2-(ethylthio)pyrazolo[1,5-a]pyrimidin-3-yl)-3-methyl-6-(trifluoromethyl)-3H-imidazo[4,5-b]pyridine] was tested. Which mortality at 300 ppm did it give?
Answer: > 70%

Test system: Plutella xylostella
Experiment: Plutella xylostella leaf dip method (cabbage leaves)
Type: in vivo
Details: foliar, second instar larvae, 72 h after release, dead and moribund combined, compared to untreated control, read-out: Percent mortality
Experimental: The leaf dip method was used for testing, wherein the required quantity of the compounds were weighed and dissolved in a surfactant solution, kept on a Vortex at 2000 rpm with zirconia beads for 90 min for proper mixing and then diluted with 0.01% Triton-X solution to the desired test concentration. Cabbage leaves were dipped in the solution for 10 seconds, shade dried for 20 min and then transferred to bioassay trays. A single second instar larva was released into each bioassay tray cell and the tray was covered with a lid. The bio-assay trays were kept under laboratory conditions at a temperature of 25° C. and relative humidity of 70%. Observations on dead, moribund and living larvae were recorded at 72 h after the release. Percent mortality was calculated by combining dead and moribund larvae and comparing the result to the one of the untreated control.

Question: With CCSc1nn2c(-c3ccc(OC(F)(F)F)cc3)ccnc2c1-c1nc2cc(C(F)(F)F)ncc2n1C [Compound 28, 2-(2-(Ethylthio)-7-(4-(trifluoromethoxy)phenyl)pyrazolo[1,5-a]pyrimidin-3-yl)-3-methyl-6-(trifluoromethyl)-3H-imidazo[4,5-c]pyridine] as the molecule, how does the mortality at 300 ppm read?
Answer: > 70%

Question: With CCS(=O)(=O)c1nn2c(-c3ccc(OC(F)(F)F)cc3)ccnc2c1-c1nc2cc(S(=O)(=O)C(F)(F)F)ccc2o1 [Compound 32, 2-(2-(Ethylsulfonyl)-7-(4-(trifluoromethoxy)phenyl)pyrazolo[1,5-a]pyrimidin-3-yl)-5-((trifluoromethyl)sulfonyl)benzo[d]oxazole] as the molecule, how does the mortality at 300 ppm read?
Answer: > 70%

Question: CCS(=O)(=O)c1nn2c(-c3ccc(Cl)cc3)ccnc2c1-c1nc2cc(C(F)(F)F)cnc2n1C [Compound 39, 2-(7-(4-Chlorophenyl)-2-(ethylsulfonyl)pyrazolo[1,5-a]pyrimidin-3-yl)-3-methyl-6-(trifluoromethyl)-3H-imidazo[4,5-b]pyridine] was tested. Which mortality at 300 ppm did it give?
Answer: > 70%

Question: With CCS(=O)(=O)c1nn2ccc(-c3ccccc3)nc2c1-c1nc2cc(C(F)(F)F)ncc2n1C [Compound 46, 2-(2-(Ethylsulfonyl)-5-phenylpyrazolo[1,5-a]pyrimidin-3-yl)-3-methyl-6-(trifluoromethyl)-3H-imidazo[4,5-d]pyridine] as the molecule, how does the mortality at 300 ppm read?
Answer: > 70%

Question: Which mortality at 300 ppm does the source give for CCSc1nn2cc(Cl)cnc2c1-c1nc2cc(C(F)(F)F)cnc2n1C [Compound 48, 2-(6-Chloro-2-(ethylthio)pyrazolo[1,5-a]pyrimidin-3-yl)-3-methyl-6-(trifluoromethyl)-3H-imidazo[4,5-b]pyridine] here?
Answer: > 70%

Question: With CCS(=O)(=O)c1nn2ccc(-c3ccc(F)cc3)nc2c1-c1nc2cc(C(F)(F)F)cnc2n1C [Compound 62, 2-(2-(Ethylsulfonyl)-5-(4-fluorophenyl)pyrazolo[1,5-a]pyrimidin-3-yl)-3-methyl-6-(trifluoromethyl)-3H-imidazo[4,5-b]pyridine] as the molecule, how does the mortality at 300 ppm read?
Answer: > 70%

Question: With CCS(=O)(=O)c1nn2cc(-c3ccccc3)cnc2c1-c1nc2cc(C(F)(F)F)ncc2n1C [Compound 66, 2-(2-(Ethylsulfonyl)-6-phenylpyrazolo[1,5-a]pyrimidin-3-yl)-3-methyl-6-(trifluoromethyl)-3H-imidazo[4,5-c]pyridine] as the molecule, how does the mortality at 300 ppm read?
Answer: > 70%

Question: For CCS(=O)(=O)c1nn2ccc(-c3cc(Cl)cc(Cl)c3)nc2c1-c1nc2cc(C(F)(F)F)cnc2n1C [Compound 67, 2-(5-(3,5-Dichlorophenyl)-2-(ethylsulfonyl)pyrazolo[1,5-a]pyrimidin-3-yl)-3-methyl-6-(trifluoromethyl)-3H-imidazo[4,5-b]pyridine], which mortality at 300 ppm is on record?
Answer: > 70%

Question: How did the mortality at 300 ppm turn out when CCS(=O)(=O)c1nn2ccc(-c3cc(Cl)cc(Cl)c3)nc2c1-c1nc2cc(C(F)(F)F)ncc2n1C [Compound 69, 2-(5-(3,5-Dichlorophenyl)-2-(ethylsulfonyl)pyrazolo[1,5-a]pyrimidin-3-yl)-3-methyl-6-(trifluoromethyl)-3H-imidazo[4,5-c]pyridine] was run?
Answer: > 70%

Question: With CCSc1nn2cc(Br)cnc2c1-c1nc2cc(C(F)(F)F)cnc2n1C [Compound 70, 2-(6-Bromo-2-(ethylthio)pyrazolo[1,5-a]pyrimidin-3-yl)-3-methyl-6-(trifluoromethyl)-3H-imidazo[4,5-b]pyridine] as the molecule, how does the mortality at 300 ppm read?
Answer: > 70%

Question: With CCS(=O)(=O)c1nn2cc(-c3ccc(Cl)cc3)cnc2c1-c1nc2cc(C(F)(F)F)ncc2n1C [Compound 74, 2-(6-(4-Chlorophenyl)-2-(ethylsulfonyl)pyrazolo[1,5-a]pyrimidin-3-yl)-3-methyl-6-(trifluoromethyl)-3H-imidazo[4,5-c]pyridine] as the molecule, how does the mortality at 300 ppm read?
Answer: > 70%

Question: With CCSc1nn2cc(-c3cc(Cl)cc(Cl)c3)cnc2c1-c1nc2cc(C(F)(F)F)ncc2n1C [Compound 80, 2-(6-(3,5-Dichlorophenyl)-2-(ethylthio)pyrazolo[1,5-a]pyrimidin-3-yl)-3-methyl-6-(trifluoromethyl)-3H-imidazo[4,5-c]pyridine] as the molecule, how does the mortality at 300 ppm read?
Answer: > 70%

Question: Which mortality at 300 ppm does the source give for CCS(=O)(=O)c1nn2cc(-c3cc(Cl)cc(Cl)c3)cnc2c1-c1nc2cc(C(F)(F)F)ncc2n1C [Compound 81, 2-(6-(3,5-Dichlorophenyl)-2-(ethylsulfonyl)pyrazolo[1,5-a]pyrimidin-3-yl)-3-methyl-6-(trifluoromethyl)-3H-imidazo[4,5-c]pyridine] here?
Answer: > 70%

Question: For CCS(=O)(=O)c1nn2ccc(-c3ccc(Cl)cc3)nc2c1-c1nc2cc(C(F)(F)F)cnc2n1C [Compound 88, 2-(5-(4-Chlorophenyl)-2-(ethylsulfonyl)pyrazolo[1,5-a]pyrimidin-3-yl)-3-methyl-6-(trifluoromethyl)-3H-imidazo[4,5-b]pyridine], which mortality at 300 ppm is on record?
Answer: > 70%

Question: With CCSc1nn2cc(-c3ccc(OC(F)(F)C(F)F)cc3)cnc2c1-c1nc2cc(C(F)(F)F)cnc2n1C [Compound 95, 2-(2-(Ethylthio)-6-(4-(1,1,2,2-tetrafluoroethoxy)phenyl)pyrazolo[1,5-a]pyrimidin-3-yl)-3-methyl-6-(trifluoromethyl)-3H-imidazo[4,5-b]pyridine] as the molecule, how does the mortality at 300 ppm read?
Answer: > 70%

Question: CCS(=O)(=O)c1nn2cc(-c3ccc(OC(F)(F)C(F)F)cc3)cnc2c1-c1nc2cc(C(F)(F)F)cnc2n1C [Compound 96, 2-(2-(Ethylsulfonyl)-6-(4-(1,1,2,2-tetrafluoroethoxy)phenyl)pyrazolo[1,5-a]pyrimidin-3-yl)-3-methyl-6-(trifluoromethyl)-3H-imidazo[4,5-b]pyridine] was tested. Which mortality at 300 ppm did it give?
Answer: > 70%

Question: With CCS(=O)(=O)c1nn2cc(-c3ccc(OC(F)(F)F)cc3)cnc2c1-c1nc2cc(C(F)(F)F)ncc2n1C [Compound 100, 2-(2-(Ethylsulfonyl)-6-(4-(trifluoromethoxy)phenyl)pyrazolo[1,5-a]pyrimidin-3-yl)-3-methyl-6-(trifluoromethyl)-3H-imidazo[4,5-c]pyridine] as the molecule, how does the mortality at 300 ppm read?
Answer: > 70%

Question: Which mortality at 300 ppm does the source give for CCS(=O)(=O)c1nn2c(-c3cccc(Cl)c3Cl)ccnc2c1-c1nc2cc(C(F)(F)F)cnc2n1C [Compound 114, 2-(7-(2,3-Dichlorophenyl)-2-(ethylsulfonyl)pyrazolo[1,5-a]pyrimidin-3-yl)-3-methyl-6-(trifluoromethyl)-3H-imidazo[4,5-b]pyridine] here?
Answer: > 70%

Question: Which mortality at 300 ppm does the source give for CCS(=O)(=O)c1nn2c(-c3ccccc3)ccnc2c1-c1nc2cc(C(F)(F)F)cnc2n1C [Compound 115, 2-(2-(Ethylsulfonyl)-7-phenylpyrazolo[1,5-a]pyrimidin-3-yl)-3-methyl-6-(trifluoromethyl)-3H-imidazo[4,5-b]pyridine] here?
Answer: > 70%

Question: How did the mortality at 300 ppm turn out when CCS(=O)(=O)c1nn2c(-c3cccc(F)c3)ccnc2c1-c1nc2cc(C(F)(F)F)cnc2n1C [Compound 130, 2-(2-(Ethylsulfonyl)-7-(3-fluorophenyl)pyrazolo[1,5-a]pyrimidin-3-yl)-3-methyl-6-(trifluoromethyl)-3H-imidazo[4,5-b]pyridine] was run?
Answer: > 70%

Question: How did the mortality at 300 ppm turn out when CCS(=O)(=O)c1nn2c(C)ccnc2c1-c1nc2cc(C(F)(F)F)cnc2n1C [Compound 133, 2-(2-(Ethylsulfonyl)-7-methylpyrazolo[1,5-a]pyrimidin-3-yl)-3-methyl-6-(trifluoromethyl)-3H-imidazo[4,5-b]pyridine] was run?
Answer: > 70%

Question: With CCS(=N)(=O)c1nn2c(-c3cc(Cl)cc(Cl)c3)ccnc2c1-c1nc2cc(C(F)(F)F)cnc2n1C (centres unmarked) [Compound 135, (7-(3,5-Dichlorophenyl)-3-(3-methyl-6-(trifluoromethyl)-3H-imidazo[4,5-b]pyridin-2-yl)pyrazolo[1,5-a]pyrimidin-2-yl)(ethyl)(imino)-λ^6-sulfanone] as the molecule, how does the mortality at 300 ppm read?
Answer: > 70%

Question: CCS(=O)(=O)c1nn2c(-c3cccc(F)c3)ccnc2c1-c1nc2cc(C(F)(F)F)ncc2n1C [Compound 137, 2-(2-(Ethylsulfonyl)-7-(3-fluorophenyl)pyrazolo[1,5-a]pyrimidin-3-yl)-3-methyl-6-(trifluoromethyl)-3H-imidazo[4,5-c]pyridine] was tested. Which mortality at 300 ppm did it give?
Answer: > 70%

— US12384787B2, “Fused heterocyclic compounds and their use as pest control agents” (PI INDUSTRIES LTD., priority 2019, dated 2025)
